Measurements as given in PMC10249358, “Elucidation of Short Linear Motif-Based Interactions of the FERM Domains of Ezrin, Radixin, Moesin, and Merlin” (Biochemistry, 2023).
One block for each substance: values may come before it. No end group written: not given here.

Columns and labels:
moesin FERM domain [1] = target: T1, moesin FERM domain (Homo sapiens, UniProt P26038); assay: Competitive FP assay, unlabeled peptide outcompetes FITC-labeled probe; type: binding
T1 construct: pGEX4T Moesin (P26038) FERM was a gift from Vijaya Ramesh (Addgene plasmid # 1163); GST (N, cleaved yes); made in house; host or cells: E. coli BL21(DE3)
T1 sequence (P26038 2-295 limits assumed): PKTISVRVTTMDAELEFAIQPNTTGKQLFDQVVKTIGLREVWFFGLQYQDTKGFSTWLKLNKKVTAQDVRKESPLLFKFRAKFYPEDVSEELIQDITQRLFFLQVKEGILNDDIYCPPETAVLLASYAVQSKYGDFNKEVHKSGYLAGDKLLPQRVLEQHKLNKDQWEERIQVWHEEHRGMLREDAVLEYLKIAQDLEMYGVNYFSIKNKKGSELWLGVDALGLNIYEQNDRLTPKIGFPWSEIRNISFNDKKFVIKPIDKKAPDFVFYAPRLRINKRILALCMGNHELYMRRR
Procedure: (§1) 25 μL of this premix was added to 25 μL of titrated target peptide. FP signals were determined as described earlier. […] All measurements were performed at least in triplicates.

radixin FERM domain = target: T2, radixin FERM domain (Homo sapiens, UniProt P35241); assay: as above; type: binding; conditions: competition FP, unlabeled peptide vs FITC-KIRREL3 probe; at least triplicates
T2 construct: radixin FERM (P35241; 5–295) domains were commercially synthesized; His-GST (N); made in house; host or cells: E. coli BL21(DE3)
T2 sequence (P35241 5-295): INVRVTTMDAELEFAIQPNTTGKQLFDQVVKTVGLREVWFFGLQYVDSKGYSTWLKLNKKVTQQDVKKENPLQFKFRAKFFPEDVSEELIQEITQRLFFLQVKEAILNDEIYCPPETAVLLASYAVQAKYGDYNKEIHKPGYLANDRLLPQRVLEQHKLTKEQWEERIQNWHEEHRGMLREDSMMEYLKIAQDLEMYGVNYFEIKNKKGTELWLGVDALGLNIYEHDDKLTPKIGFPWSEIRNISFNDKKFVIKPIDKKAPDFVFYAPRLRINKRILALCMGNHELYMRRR
Procedure: as §1

moesin FERM domain [2] = target: T1, moesin FERM domain; assay: Direct binding fluorescence polarization (FP) assay, FITC-labeled probe peptides; conditions: FITC-labeled probe peptide 5 nM titrated with FERM domain, 20 mM HEPES pH 7.4, 150 mM NaCl, 0.05% Tween-20, 3 mM DTT, quadratic 1:1 fit, n = 3 technical repeats
Procedure: (§2) For fluorescence polarization (FP) experiments of merlin FERM, the GST tag was removed using HRV3C protease by incubating the enzyme (100 units/10 mg protein) with protein overnight at 4 °C in the dialysis buffer (20 mM HEPES, pH 7.4, 150 mM NaCl, 0.05% Tween-20, and 3 mM DTT). The following day, the cleaved GST and the protease were removed using reverse Ni-IMAC, and the protein was concentrated to the working concentration. For FP experiments using moesin FERM, thrombin (Sigma) was used to cleave the GST tag from moesin FERM domain on GSH sepharose beads (Cytiva) and incubated overnight at 4 °C under gentle rotation. Next day, the beads were collected by gentle centrifugation, while the supernatant containing thrombin and moesin FERM domain was passed through a HiTrap benzamidine column (Cytiva). The protein was then eluted using a high salt (0.7–1 M NaCl) concentration. The buffer was then exchanged using the PD-10 desalting column (Cytiva) into FP buffer (20 mM HEPES, pH 7.4, 150 mM NaCl, 0.05% Tween-20, and 3 mM DTT).
(§3) Synthetic peptides were obtained at 95% purity (GeneCust) and were dissolved in FP buffer (described earlier). To obtain direct binding saturation data, a dilution series of moesin FERM domain was prepared using the FP buffer, and then an equal volume of 10 nM FITC-labeled peptide was added to each sample. After mixing, the FP signals were recorded using SpectraMax iD5 (Molecular Devices). Data were analyzed with GraphPad Prism version 7.0.0 for MacOS (GraphPad Software, San Diego, California USA). A quadratic equation for equilibrium binding[37] was used to fit the obtained data. [drawing 1] where pept indicates the probe peptide concentration (5 nM), X indicates the protein concentration, the constant A being the signal amplitude divided by probe peptide concentration, and B is the plateau value. Direct binding experiments were performed and analyzed the same way in the presence of saturating concentration of unlabeled peptides.

moesin FERM domain [3] = target: T1, moesin FERM domain; assay: Direct binding FP in the presence of saturating concentration of unlabeled competing peptide
Procedure: as §3
We next explored the interplay between the F3a and F3b ligands by determining the affinity of FITC-labeled model peptides in the presence of high concentrations of the competing ligands (Figure 6A,B). […] The asymmetric competition could potentially be explained by an allosteric model where binding to the F3a site induces a conformational change of the protein that reduces the affinity for F3b ligands.

merlin FERM domain = target: T3, merlin FERM domain (Homo sapiens, UniProt P35240); assay: Direct binding fluorescence polarization (FP) assay, FITC-labeled probe peptides; conditions: FITC-labeled probe peptide 5 nM titrated with FERM domain, 20 mM HEPES pH 7.4, 150 mM NaCl, 0.05% Tween-20, 3 mM DTT, quadratic 1:1 fit, n = 3 technical repeats, N.B. within the concentration range tested
T3 construct: human merlin FERM (P35240; amino acids 22–312); His-GST (N, cleaved yes); made in house; host or cells: E. coli BL21(DE3)
T3 sequence (P35240 22-312): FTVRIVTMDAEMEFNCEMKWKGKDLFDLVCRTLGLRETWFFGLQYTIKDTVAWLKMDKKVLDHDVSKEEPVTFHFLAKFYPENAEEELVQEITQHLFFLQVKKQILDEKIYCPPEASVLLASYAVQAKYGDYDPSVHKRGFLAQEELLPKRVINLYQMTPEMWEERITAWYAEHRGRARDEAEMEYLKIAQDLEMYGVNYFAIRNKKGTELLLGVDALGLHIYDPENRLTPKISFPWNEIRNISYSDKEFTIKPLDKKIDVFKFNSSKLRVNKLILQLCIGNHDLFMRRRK
Procedure: as §2, §3

moesin FERM M285A/H288A = target: T4, moesin FERM M285A/H288A (Homo sapiens, UniProt P26038, H288A/M285A); assay: Direct binding FP assay with F3b-site mutant; conditions: direct binding of FITC-labeled probe; Table S7
T4 construct: we generated a mutant moesin FERM domain (M285A and H288A); GST (N, cleaved yes); made in house; host or cells: E. coli BL21(DE3)
T4 sequence (P26038 2-295 M285A/H288A limits assumed): as the sequence (P26038 2-295 limits assumed) above, with M284A, H287A counted along it
Excerpt: Synthetic genes encoding for human merlin FERM (P35240; amino acids 22–312) and radixin FERM (P35241; 5–295) domains were commercially synthesized (ThermoFisher) and cloned into pETM33 using NcoI and EcoRI restriction sites. pGEX4T Moesin (P26038) FERM was a gift from Vijaya Ramesh (Addgene plasmid # 1163[27]). pGEX4T1 Ezrin (P15311) FERM domain was a kind gift from Volker Gerke.[28] Human NOP53-HA-pcDNA was a kind gift from Ronit Sarid.[29] The NOP53 gene was polymerase chain reaction (PCR)-amplified and cloned into CMV10 using HindIII and EcoRI. RRBP1-GFP was kindly provided by Alexander F. Palazzo.[30] HA-HIF1-alpha-pcDNA3 was a gift from William Kaelin (Addgene plasmid # 18949[31]). pcDNA3 LATS1 was a gift from Erich Nigg (Addgene plasmid # 41156[32]). […]
Synthetic peptides were obtained at 95% purity (GeneCust) and were dissolved in FP buffer (described earlier). […] After mixing, the FP signals were recorded using SpectraMax iD5 (Molecular Devices). Data were analyzed with GraphPad Prism version 7.0.0 for MacOS (GraphPad Software, San Diego, California USA). […] Direct binding experiments were performed and analyzed the same way in the presence of saturating concentration of unlabeled peptides.
To validate the models on the receptor side, we generated a mutant moesin FERM domain (M285A and H288A) and determined the effect on the affinity. […]

[4] = competitive FP using FITC-KIRREL3_637–652 as probe, Figure 4G, read-out: KD' (moesin FERM, KIRREL3 and TBX4 peptide variants)
[5] = direct binding FP in presence of excess unlabeled KIRREL3 (80 μM), Figure 6E, read-out: KD of FITC-labeled probe for moesin FERM, saturating peptide KIRREL3
[6] = direct binding FP in presence of excess unlabeled TBX4 (80 μM), Figure 6F, read-out: KD of FITC-labeled probe for moesin FERM, saturating peptide TBX4
[7] = competitive FP using WT FITC-labeled ZNF622 as probe, Figure 5D, read-out: KD' (moesin FERM, ZNF622 peptide variants)
[8] = moesin FERM, unlabeled peptide at about 100 times KD (80–150 μM)

Kd (moesin FERM domain [1]; [4]): 0.11 ± 0.01 µM
Substance: TNGAYSVNTFKEHHST

Kd (radixin FERM domain): 17 ± 2 µM
Substance: LYTLPDDSTHQLLQPH [BOC1000–1015]

Kd (moesin FERM domain [1]; read-out: moesin KD′): 2.3 ± 0.1 µM
Substance: ITGSYSVSESPFFSPI [MISP595–610]

Kd (moesin FERM domain [1]; [4]): 58 ± 5 µM
Substance: TNGYASVNTFKEHHST

Kd (moesin FERM domain [1]; [7]): 50 ± 2 µM
Substance: LEFADFYAFRSSYPDH

Kd (moesin FERM domain [1]; [7]): 2.8 ± 0.1 µM
Substance: LEFADFYDFRSSAPDH

Continued, substance first:

Substance: APQMDWSKKNELFSNL [EBP50_343–358, reference compound]
Kd (moesin FERM domain [2]): 3 ± 0.3 µM
Kd (moesin FERM domain [3]; [5]): 3.3 ± 0.2 µM
Kd (moesin FERM domain [3]; [6]): 3.4 ± 0.2 µM

Substance: TNGYYSANTFKEHHST
Kd (moesin FERM domain [1]; [4]): 50 ± 6 µM

Substance: YYSVNTFKEHHSTPTI [KIRREL3_637–652]
KD, merlin FERM domain (merlin FERM domain): N.B.

Substance: FYELAHQLPLPHNVSS [HIF1A37–52]
Kd (moesin FERM domain [1]; competition FP, determined using FITC-ZNF622 as the probe peptide (footnote b), read-out: moesin KD′): 3 ± 0.4 µM

Substance: LEAADFYDFRSSYPDH
Kd (moesin FERM domain [1]; [7]): 2.3 ± 0.1 µM

Substance: KIRREL3_634–652: unlabeled F3b ligand used at 80 μM as saturating competitor; residue range as printed (TNGYYSVNTFKEHHSTPTI)
effect of excess unlabeled peptide on binding of FITC-EBP50 / FITC-ZNF622 to the F3a site (moesin FERM domain [3]; [8]): not binding
effect of excess unlabeled peptide on binding of FITC-KIRREL3 / FITC-TBX4 to the F3b site (moesin FERM domain [3]; [8]): blocked binding

Substance: LEFADAYDFRSSYPDH
Kd (moesin FERM domain [1]; [7]): 85 ± 2 µM

Substance: SYSVQTMETVPYQPFP [TBX4_428–443]
KD, merlin FERM domain (merlin FERM domain): N.B.
Kd (moesin FERM domain [1]; [4]): 1 ± 0.1 µM

Substance: THHKALQEIRNSLLPF [LATS1_73–88, reference compound]
Kd (moesin FERM domain [2]): 1 ± 0.1 µM
Kd (moesin FERM M285A/H288A): 1.3 ± 0.1 µM

Substance: LEFADFYDFRSSYPDH [ZNF622_341–356]
Kd (moesin FERM domain [2]): 1 ± 0.1 µM
Kd (moesin FERM domain [1]; [7]): 1.4 ± 0.1 µM
Kd (moesin FERM domain [3]; [5]): 1.4 ± 0.1 µM
Kd (moesin FERM domain [3]; [6]): 1.3 ± 0.2 µM
Kd (moesin FERM M285A/H288A): 1.3 ± 0.1 µM

Substance: TNGYYSVNTFKEHHST
Kd (moesin FERM domain [1]; [4]): 0.1 ± 0.01 µM
